Measured values: paper PMC6943638, “Lectin PLL3, a Novel Monomeric Member of the Seven-Bladed β-Propeller Lectin Family” (Molecules, 2019)
Starred links: 1 amine or outer side, 2 acyl side, 3 side chain; linkers in the order of their positions; H or OH if unused. Residues, ends and D or L forms follow the SMILES beside them. Suc = O=C(CCC(=O)[*:2])[*:1]

Key:
[1] = target: T1, PLL3 (Photorhabdus laumondii subsp. laumondii, UniProt Q7N8I7); test: Glycan array screening with DyLight 488-labeled PLL3; format: binding
T1 sequence (Q7N8I7 entry or part of it): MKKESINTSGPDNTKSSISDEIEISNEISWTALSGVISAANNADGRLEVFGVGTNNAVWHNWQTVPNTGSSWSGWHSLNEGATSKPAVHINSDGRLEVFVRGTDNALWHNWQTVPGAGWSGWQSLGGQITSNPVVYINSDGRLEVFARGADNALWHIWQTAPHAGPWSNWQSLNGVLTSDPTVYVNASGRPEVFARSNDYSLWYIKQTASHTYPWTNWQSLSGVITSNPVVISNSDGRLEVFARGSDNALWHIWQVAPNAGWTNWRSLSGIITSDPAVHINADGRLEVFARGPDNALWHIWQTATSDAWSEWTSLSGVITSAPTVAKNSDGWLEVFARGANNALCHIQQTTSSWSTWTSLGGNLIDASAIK
From the text: Purified PLL3 protein was labeled with DyLight 488 NHS Ester (Thermo Scientific, Rockford, MI, USA) according to the manual instructions of the manufacturer. The unbound dye was removed from the solution using the Zeba Spin Desalting Column (Thermo scientific). The labeled lectin was used for glycan array screening using a glycan microarray chip (Semiotik, Moscow, Russia; chip format OSPS280715; slide number 10085636) containing over 600 mammalian and bacterial glycans (all in hexaplicates). The glycan microarray chip was incubated in 1.0 mL of PBS buffer supplemented with 0.1% (v/v) Tween 20 and placed in a humid chamber for 15 min (37 °C, 40 rpm). Then, the buffer was replaced by 0.5 mL PLL3 (200 μg mL^−1) diluted in PBS buffer with 0.1% Tween 20 and 1% (w/v) bovine serum albumin (Serva, Germany). After incubation (90 min, 37 °C, 40 rpm), the chip was washed by decreasing concentrations of PBS with 0.1% Tween 20, followed by multiple immersions in ultrapure water. Subsequently, the chip was dried by air blow. Fluorescence was read with a scanner InnoScan 1100 AL (Innopsys, Carbonne, France) with a 488 nm laser at 20 °C. The data were analyzed with the software Mapix 8.2.2 and an online glycan chip converter (Semiotik, https://rakitko.shinyapps.io/semiotik). The relative fluorescent response of PLL3 binding was calculated from hexaplicates of each glycan immobilized onto the chip. Only glycans with a response three or more times higher than trehalose and concurrently with a signal-to-noise ratio higher than two were considered as significant binders.

[2] = target: T1, PLL3; test: Hemagglutination inhibition assay (PLL3 with erythrocytes of blood group O); format: cell-based; conditions: PLL3 50 μM, blood group O erythrocytes; saccharide 100 to 0.1 mM
Protocol: For the hemagglutination inhibition assay, the PLL3 was mixed with serially diluted saccharides (L-fucose, αMeFuc, D-galactose, D-glucose, and 3-O-methyl-D-glucose) dissolved in PBS buffer, and mixtures were incubated for 15 min at room temperature. Subsequently, erythrocytes of blood group O were added into the mixture with following incubation for 15 min. The final concentration was 50 μM for the PLL3 and 10% (v/v) for erythrocytes. Concentrations of L-fucose and αMeFuc ranged from 50 to 0.05 mM. Concentrations of D-galactose, D-glucose, and 3-O-methyl-D-glucose ranged from 100 to 0.1 mM. Each sample was observed under the optical microscope (Olympus IX81 with camera DP72; 200x magnification; SW CellSens Dimension, Olympus corporation, Tokyo, Japan).

[3] = target: T1, PLL3; test: Isothermal titration calorimetry (ITC); format: binding; conditions: KD
Protocol: ITC experiments were carried out using an AutoITC200 calorimeter (Malvern, UK) at 25 °C. The purified lectin was dialyzed against 20 mM Tris/HCl, 150 mM NaCl, pH 7.5 buffer before measurements. Individual ligands (L-fucose, αMeFuc, D-galactose, D-glucose, 3-O-methyl-D-glucose, and decavalent fucosylated glycoclusters 4a and 4b) were dissolved in the same buffer. PLL3 (100 μM) in the cell was titrated by the successive addition (2.0 μL) of the ligand in the syringe (20 mM for monosaccharides, 1 mM for multivalent fucosides). Experiments with monosaccharides were performed at stirring 750 rpm with a reference power of 10 μcal s^−1. Experiments with multivalent fucosides were performed at stirring 500 rpm with a reference power of 6 μcal s^−1. Titrations were carried out in three independent measurements for each ligand. Blank measurements were subtracted from collected data. For multivalent fucosides, two blank measurements were performed: titration of the buffer into the cell with PLL3 and titration of the buffer into the buffer. For monosaccharides, the additional blank measurement, the titration of a given ligand into the cell with buffer, was performed. The data were evaluated in software MicroCal PEAQ-ITC Analysis Software (Malvern, UK) by using the global fit method. Integrated heat effects were analyzed by nonlinear regression.

[4] = glycan array signal of DyLight 488-labeled PLL3 per immobilized glycan or bacterial polysaccharide
[5] = glycan array signal of DyLight 488-labeled PLL3 per printed glycan, Table S2, file PLU35_second_noheader.gpr

Molecule	Median [1, 4]	Median [1, 5]	other results
CC(=O)N[C@@H]1C(O)C[C@](O[C@@H]2C(O)[C@H](O[C@@H]3C(CO)OC(NC(=O)CN)C(O)[C@H]3O)OC(CO)[C@@H]2O)(C(=O)O)OC1[C@H](O)[C@H](O)CO (stereo partly shown) [3'SL-Gly]	101		
CC(C)C[C@H](NC(=O)CCC(=O)O)C(=O)N1CCC[C@H]1C(=O)N[C@@H](Cc1c[nH]c2ccccc12)C(=O)N[C@@H](Cc1ccc(O)cc1)C(=O)N[C@@H](CCCNC(=N)N)C(=O)N[C@@H](C)C(=O)N1CCC[C@H]1C(=O)N[C@@H](CCCCN)C(N)=O [RhD] (Suc-LPWYRAPK-NH2)		563	
NCCOCCOCCOCCOCCOCCOCC(=O)NCCOC1OC(COC2OC(COC3OC(CO)C(O)C3OC3OC(CO)C(O)C3O)C(OC3OC(CO)C(O)C3OC3OC(CO)C(O)C3O)C2O)C(O)C1O (stereo not shown)	220		
OC[C@H]1O[C@H](O[C@H]2[C@@H](O)[C@@H](CO)OC(O)[C@@H]2O)[C@H](O)[C@@H](O)[C@H]1O (stereo partly shown) [Bdi]	134		
CC(=O)N[C@H]1[C@H]([C@H](O)[C@H](O)CO)OC(OC[C@H]2O[C@@H](O[C@H]3[C@H](O)[C@@H](NC(C)=O)C(O)O[C@@H]3CO)[C@H](O)[C@@H](O)[C@H]2O)(C(=O)O)C[C@@H]1O (stereo partly shown) [6'SLN]	99		
CC(=O)N[C@H]1[C@H]([C@H](O)[C@H](O)CO)O[C@@](O[C@H]2[C@@H](O)[C@@H](CO)O[C@@H](O[C@H]3[C@H](O)[C@@H](NC(C)=O)C(O)O[C@@H]3CO)[C@@H]2O)(C(=O)O)C[C@@H]1O (stereo partly shown) [3'SLN]	43		
CCCCCn1ccc2ccccc21 [NpentylIndol]		872	
Scleroglucan		1150	
COCC1OC(O)C(O)C(OC)C1O (stereo not shown) [3,6-Me2Glc]	74		
CC(=O)N[C@H]1[C@H]([C@H](O)[C@H](O)CO)OC(O)(C(=O)O)C[C@@H]1O (stereo partly shown) [Sia]	112		
CC(=O)N[C@H]1[C@@H](OC[C@H](N)C(=O)O)O[C@H](CO)[C@H](O)[C@@H]1O [GalNAca1-OSer]	208		
Laminaran		417	
Mannan		480	
C[C@@H]1O[C@@H](O[C@H]2[C@H](O[C@H]3[C@H](O)[C@@H](O)[C@H](O)O[C@@H]3CO)O[C@H](CO)[C@H](O)[C@@H]2O)[C@@H](O)[C@H](O)[C@@H]1O [Htype6]		474	
O=C[C@H](O)[C@@H](O)[C@@H](O)[C@H](O)CO [D-galactose]			inhibition of hemagglutination [2]: did not inhibit hemagglutination; Kd ([3]; stoichiometry fixed to 3, 25 °C): 2800 ± 140 µM; Kd ([3]; stoichiometry fixed to 4, 25 °C): 2700 ± 140 µM; Kd ([3]; stoichiometry fixed to 5, 25 °C): 2600 ± 130 µM; Kd ([3]; stoichiometry fixed to 6, 25 °C): 2500 ± 130 µM; Kd ([3]; stoichiometry fixed to 7, 25 °C): 2300 ± 130 µM
CC(=O)N[C@H]1[C@H](O[C@H]2[C@@H](O)[C@@H](CO)O[C@@H](O[C@H]3[C@H](O)[C@@H](O)C(O)O[C@@H]3CO)[C@@H]2O)O[C@H](CO)[C@@H](O)[C@@H]1O[C@@H]1O[C@H](CO)[C@H](O)[C@H](O[C@]2(C(=O)O)C[C@H](O)[C@@H](NC(C)=O)[C@H]([C@H](O)[C@H](O)CO)O2)[C@H]1O (stereo partly shown) [LSTa]		328	

Molecule	Median [1, 4]	Median [1, 5]	other results
CC(=O)N[C@H]1[C@H](OCCCN)O[C@H](CO)[C@@H](O[C@@H]2O[C@H](CO)[C@H](O)[C@H](O)[C@H]2O)[C@@H]1O [Galb1-4GlcNAcb-sp8]	184		
NCC(=O)NCC(=O)NCC(=O)NCC(=O)NCC(=O)NCC(N)=O [Gly6]		530	
O=P(O)(O)OC[C@H]1O[C@H](O)[C@H](O)[C@@H](O)[C@@H]1O [G6P]		615	
OC[C@H]1O[C@H](O[C@H]2O[C@H](CO)[C@@H](O)[C@H](O)[C@H]2O)[C@H](O)[C@@H](O)[C@@H]1O [Treh]		2512	
CC(=O)N[C@@H]1[C@@H](O)[C@H](O[C@@H]2O[C@H](CO)[C@@H](O)[C@H](O)[C@H]2NC(C)=O)[C@@H](CO)O[C@H]1NC(=O)C[C@H](N)C(=O)O [GlcNAcb1-4GlcNAcb-Asn]	277		
O=C[C@@H](O)[C@@H](O)[C@H](O)[C@H](O)COP(=O)(O)O [M6P]	148		
Curdlan		1158	
CC(=O)N[C@H]1[C@H]([C@H](O)[C@H](O)CO)O[C@@](O[C@H](CO)[C@@H](O)[C@@H]2O[C@@](O[C@H](CO)[C@@H](O)[C@@H]3O[C@](O)(C(=O)O)C[C@H](O)[C@H]3NC(C)=O)(C(=O)O)C[C@H](O)[C@H]2NC(C)=O)(C(=O)O)C[C@@H]1O [(Sia)3]	158		
NCC(O)C(O)C(O)C(O)CO (stereo not shown) [HOCH2(HOCH)4CH2NH2]	293		
CC(=O)N[C@H]1[C@@H](O[C@H]2[C@@H](O)[C@@H](CO)OC(O)[C@@H]2O[C@@H]2O[C@@H](C)[C@@H](O)[C@@H](O)[C@@H]2O)O[C@H](CO)[C@H](O)[C@@H]1O (stereo partly shown) [Atri]	167		
OC[C@H]1O[C@@H](O[C@H]2[C@H](O)[C@@H](O)[C@H](O)O[C@@H]2CO)[C@H](O)[C@@H](O)[C@@H]1O [cello]		672	
Laminarin		954	
Chitosan		1790	
CC(=O)N[C@@H]1[C@@H](O)[C@H](O[C@@H]2O[C@H](CO)[C@H](O)[C@H](O[C@H]3O[C@H](CO)[C@H](O)[C@H](O)[C@H]3NC(C)=O)[C@H]2O[C@@H]2O[C@@H](C)[C@@H](O)[C@@H](O)[C@@H]2O)[C@@H](CO)O[C@H]1O [Atype2]	158		
CC(=O)N[C@H]1[C@H](O[C@H]2[C@@H](O)[C@@H](CO)O[C@@H](O[C@H]3[C@H](O)[C@@H](O)C(O)O[C@@H]3CO)[C@@H]2O)O[C@H](CO)[C@@H](O)[C@@H]1O[C@@H]1O[C@H](CO)[C@H](O)[C@H](O)[C@H]1O (stereo partly shown) [LNT]		349	
CC(=O)N[C@H]1[C@H](O[C@H]2[C@@H](O)[C@@H](CO)O[C@@H](O[C@@H]([C@H](O)[C@@H](O)C=O)[C@H](O)CO)[C@@H]2O)O[C@H](CO[C@]2(C(=O)O)C[C@H](O)[C@@H](NC(C)=O)[C@H]([C@H](O)[C@H](O)CO)O2)[C@@H](O)[C@@H]1O[C@@H]1O[C@H](CO)[C@H](O)[C@H](O)[C@H]1O [LSTb]		348	
